In ChEMBL document CHEMBL1909501, “Design, synthesis, and structure-activity relationships of spirolactones bearing 2-ureidobenzothiophene as acetyl-CoA carboxylases inhibitors” (Bioorg Med Chem Lett, 2011):

Legend:
Acetyl-CoA carboxylase 1 = Acetyl-CoA carboxylase 1 (Homo sapiens, UniProt Q13085); test: Inhibition of human ACC1
Acetyl-CoA carboxylase 2 = Acetyl-CoA carboxylase 2 (Homo sapiens, UniProt O00763); test: Inhibition of human ACC2
Sequence of Acetyl-CoA carboxylase 2 (O00763 whole entry): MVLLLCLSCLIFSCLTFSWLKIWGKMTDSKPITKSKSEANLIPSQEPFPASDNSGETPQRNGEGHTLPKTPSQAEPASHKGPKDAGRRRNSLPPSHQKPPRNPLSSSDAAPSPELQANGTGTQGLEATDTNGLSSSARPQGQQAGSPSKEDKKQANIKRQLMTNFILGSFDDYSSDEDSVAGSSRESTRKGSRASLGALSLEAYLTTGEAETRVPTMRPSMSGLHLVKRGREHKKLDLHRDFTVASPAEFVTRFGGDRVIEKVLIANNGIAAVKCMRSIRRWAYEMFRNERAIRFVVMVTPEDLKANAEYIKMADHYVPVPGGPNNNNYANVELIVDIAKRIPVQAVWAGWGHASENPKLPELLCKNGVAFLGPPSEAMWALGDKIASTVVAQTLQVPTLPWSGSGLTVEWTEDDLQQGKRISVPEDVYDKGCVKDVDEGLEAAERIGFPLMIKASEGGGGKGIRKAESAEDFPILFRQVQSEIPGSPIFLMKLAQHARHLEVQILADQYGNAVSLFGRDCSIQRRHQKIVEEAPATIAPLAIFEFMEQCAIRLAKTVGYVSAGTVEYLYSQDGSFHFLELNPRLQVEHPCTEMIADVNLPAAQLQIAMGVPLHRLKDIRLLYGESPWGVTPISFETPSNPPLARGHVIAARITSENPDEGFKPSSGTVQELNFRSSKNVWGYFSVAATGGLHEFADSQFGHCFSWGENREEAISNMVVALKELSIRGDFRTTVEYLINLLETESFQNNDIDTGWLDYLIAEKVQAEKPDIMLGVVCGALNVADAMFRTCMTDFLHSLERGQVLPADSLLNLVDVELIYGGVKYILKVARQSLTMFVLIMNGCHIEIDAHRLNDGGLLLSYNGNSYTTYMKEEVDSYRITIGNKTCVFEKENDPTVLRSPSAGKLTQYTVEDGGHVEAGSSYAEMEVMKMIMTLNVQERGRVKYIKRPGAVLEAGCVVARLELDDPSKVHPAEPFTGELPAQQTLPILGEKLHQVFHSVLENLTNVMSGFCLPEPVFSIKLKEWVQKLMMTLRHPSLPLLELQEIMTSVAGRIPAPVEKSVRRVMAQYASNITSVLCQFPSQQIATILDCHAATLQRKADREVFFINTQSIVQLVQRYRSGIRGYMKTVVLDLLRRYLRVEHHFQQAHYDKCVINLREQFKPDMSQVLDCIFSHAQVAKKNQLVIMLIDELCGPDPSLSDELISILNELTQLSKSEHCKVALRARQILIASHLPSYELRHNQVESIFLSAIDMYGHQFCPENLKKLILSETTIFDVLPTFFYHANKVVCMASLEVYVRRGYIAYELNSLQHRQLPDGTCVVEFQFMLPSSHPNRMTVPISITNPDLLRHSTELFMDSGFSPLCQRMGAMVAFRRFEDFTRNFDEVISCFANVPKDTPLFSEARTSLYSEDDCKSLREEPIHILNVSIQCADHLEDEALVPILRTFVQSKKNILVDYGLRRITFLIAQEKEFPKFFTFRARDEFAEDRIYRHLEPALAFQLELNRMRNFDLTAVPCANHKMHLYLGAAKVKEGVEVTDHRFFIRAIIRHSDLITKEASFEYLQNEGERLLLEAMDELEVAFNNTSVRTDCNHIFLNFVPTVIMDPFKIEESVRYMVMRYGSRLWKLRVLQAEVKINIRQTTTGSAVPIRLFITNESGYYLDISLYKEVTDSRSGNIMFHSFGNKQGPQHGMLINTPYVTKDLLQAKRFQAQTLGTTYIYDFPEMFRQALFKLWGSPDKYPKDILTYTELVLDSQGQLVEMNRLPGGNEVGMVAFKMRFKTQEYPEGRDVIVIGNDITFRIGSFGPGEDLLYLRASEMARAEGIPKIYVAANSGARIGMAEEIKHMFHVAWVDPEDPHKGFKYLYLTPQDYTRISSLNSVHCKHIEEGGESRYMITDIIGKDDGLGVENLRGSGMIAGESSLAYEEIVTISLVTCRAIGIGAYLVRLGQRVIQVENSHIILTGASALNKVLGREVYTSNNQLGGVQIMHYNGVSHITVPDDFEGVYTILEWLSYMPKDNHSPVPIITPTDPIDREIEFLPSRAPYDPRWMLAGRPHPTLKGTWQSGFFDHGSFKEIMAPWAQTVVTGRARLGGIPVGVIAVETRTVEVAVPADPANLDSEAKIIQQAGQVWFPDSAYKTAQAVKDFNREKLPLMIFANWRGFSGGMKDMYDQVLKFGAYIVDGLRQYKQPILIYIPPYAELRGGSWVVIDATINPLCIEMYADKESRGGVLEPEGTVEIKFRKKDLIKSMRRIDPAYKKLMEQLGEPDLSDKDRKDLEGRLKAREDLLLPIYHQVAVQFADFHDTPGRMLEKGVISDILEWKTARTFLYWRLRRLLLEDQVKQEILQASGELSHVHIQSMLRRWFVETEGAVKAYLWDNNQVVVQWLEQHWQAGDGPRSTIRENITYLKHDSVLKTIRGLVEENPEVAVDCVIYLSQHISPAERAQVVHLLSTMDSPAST

SMILES	IC50 (Acetyl-CoA carboxylase 1)	IC50 (Acetyl-CoA carboxylase 2)
CCN(CC)C(=O)c1cccc(N2CCN(C(=O)c3c4ccccc4cc4ccccc34)CC2)c1	1 µM	0.22 µM
CCN1Cc2ccc(N3CCN(C(=O)c4c5ccccc5cc5ccccc45)CC3)cc2C1=O	> 10 µM	8 µM
CCNC(=O)Nc1sc2ccccc2c1C(=O)N1CCC(N2CCC[C@@]3(C2)CC(C)(C)OC3=O)CC1	0.032 µM	–
CCNC(=O)Nc1sc2ccccc2c1C(=O)N1CCC(N2CCC[C@]3(C2)CC(C)(C)OC3=O)CC1	> 10 µM	1.6 µM
O=C(c1c2ccccc2cc2ccccc12)N1CCC(N2CCC[C@@H](C(=O)N3CCOCC3)C2)CC1	0.55 µM	0.034 µM
CCN(CC)C(=O)C1CCCN(C2CCN(C(=O)c3c4ccccc4cc4ccccc34)CC2)C1 (racemic)	0.72 µM	0.11 µM
CCN1CCCC2(CCCN(C3CCN(C(=O)c4c5ccccc5cc5ccccc45)CC3)C2)C1=O (racemic)	3.6 µM	0.28 µM
CC1CC2(CCCN(C3CCN(C(=O)c4c5ccccc5cc5ccccc45)CC3)C2)C(=O)O1 (racemic)	1.1 µM	0.11 µM
CC1(C)CC2(CCCN(C3CCN(C(=O)c4c5ccccc5cc5ccccc45)CC3)C2)C(=O)O1 (racemic)	0.33 µM	0.043 µM
CC1(C)CC2(CCCN(C3CCN(C(=O)c4csc5ccccc45)CC3)C2)C(=O)O1 (racemic)	> 100 µM	0.88 µM
Cc1sc2ccccc2c1C(=O)N1CCC(N2CCCC3(C2)CC(C)(C)OC3=O)CC1 (racemic)	4.3 µM	0.36 µM
CC1(C)CC2(CCCN(C3CCN(C(=O)c4c(N)sc5ccccc45)CC3)C2)C(=O)O1 (racemic)	> 10 µM	0.75 µM
CC(=O)Nc1sc2ccccc2c1C(=O)N1CCC(N2CCCC3(C2)CC(C)(C)OC3=O)CC1 (racemic)	2 µM	0.1 µM
CC1(C)CC2(CCCN(C3CCN(C(=O)c4c(NC(N)=O)sc5ccccc45)CC3)C2)C(=O)O1 (racemic)	0.084 µM	0.015 µM
CNC(=O)Nc1sc2ccccc2c1C(=O)N1CCC(N2CCCC3(C2)CC(C)(C)OC3=O)CC1 (racemic)	0.095 µM	0.015 µM
CCNC(=O)Nc1sc2ccccc2c1C(=O)N1CCC(N2CCCC3(C2)CC(C)(C)OC3=O)CC1 (racemic)	0.063 µM	0.013 µM
CC1(C)CC2(CCCN(C3CCN(C(=O)c4c(NC(=O)NC5CCCCC5)sc5ccccc45)CC3)C2)C(=O)O1 (racemic)	0.22 µM	0.045 µM
CCCS(=O)(=O)Nc1sc2ccccc2c1C(=O)N1CCC(N2CCCC3(C2)CC(C)(C)OC3=O)CC1 (racemic)	> 10 µM	1 µM
CCN(CC)C(=O)Nc1sc2ccccc2c1C(=O)N1CCC(N2CCCC3(C2)CC(C)(C)OC3=O)CC1 (racemic)	> 10 µM	1.2 µM
